Columns and labels:
Assay in all cases: Ba/F3 drug screening, Cell Titer Glo, IC50 Mut/WT
Type in all cases: cell-based
EGFR E709K L858R = target: T1, EGFR E709K L858R (Homo sapiens, UniProt P00533, E709K/L858R); conditions: Classical-Like, 72 hours
T1 construct: expressed in transfected cells; host or cells: Ba/F3 cells, retroviral pBabe-Puro vector

EGFR L833F = target: T2, EGFR L833F (Homo sapiens, UniProt P00533, L833F); conditions: Classical-Like, 72 hours
T2 construct: expressed in transfected cells; host or cells: Ba/F3 cells, retroviral pBabe-Puro vector
Protocol: (§1) Data represent the ratio of the IC50 value for a given TKI for cells with a classical-like EGFR mutation to the IC50 value for cells with wildtype EGFR.
(§2) Ba/F3 cell generation, drug screening, and IC50 approximations. Ba/F3 cells were obtained as a gift from Dr. Gordon Mills (MD Anderson Cancer Center), and maintained in RPMI (Sigma) containing 10% FBS, 1% penicillin/streptomycin, and 10 ng/ml recombinant mIL-3 (R&D Biosystems). To establish stable Ba/F3 cell lines, Ba/F3 cells were transduced with retroviruses containing mutant EGFR plasmids for 12-24 hours.
(§3) After 48-72 hours of transduction, 2 μg/ml puromycin (Invitrogen) was added to Ba/F3 cell lines in complete RPMI. To select for EGFR positive cell lines, cells were stained with PE-EGFR (Biolegend) and sorted by FACS. After sorting, EGFR positive cells were maintained in RPMI containing 10% FBS, 1% penicillin/streptomycin, and 1 ng/ml EGF to support cell viability. […] Shortly, cells were plated in 384-well plates (Greiner Bio-One) at 2000-3000 cells per well in technical triplicate. Seven different concentrations of TKIs or DMSO vehicle were added to reach a final volume of 40 μL per well. After 72 hours, 11 μL of Cell Titer Glo (Promega) was added to each well. Plates were incubated for a minimum of 10 minutes, and bioluminescence was determined using a FLUOstar OPTIMA plate reader (BMG LABTECH). Raw bioluminescence values were normalized to DMSO control treated cells, and values were plotted in GraphPad Prism. […] Drug screens were performed in technical triplicate on each plate and either duplicate or triplicate biological replicates.

EGFR Ex19del = target: T3, EGFR Ex19del (Homo sapiens, UniProt P00533, DEL746-750); conditions: Classical-Like, 72 hours
T3 construct: expressed in transfected cells; host or cells: Ba/F3 cells, retroviral pBabe-Puro vector
Protocol: as §1, §2, §3

EGFR L858R S784F = target: T4, EGFR L858R S784F (Homo sapiens, UniProt P00533, L858R/S784F); conditions: Classical-Like, 72 hours
T4 construct: expressed in transfected cells; host or cells: Ba/F3 cells, retroviral pBabe-Puro vector (vector made by GeneScript from EGFR L858R)
Protocol: as §1, §2, §3

EGFR S720P = target: T5, EGFR S720P (Homo sapiens, UniProt P00533, S720P); conditions: Classical-Like, 72 hours
T5 construct: expressed in transfected cells; host or cells: Ba/F3 cells, retroviral pBabe-Puro vector (vector made by GeneScript from EGFR WT)

EGFR L861Q = target: T6, EGFR L861Q (Homo sapiens, UniProt P00533, L861Q); conditions: Classical-Like, 72 hours
T6 construct: expressed in transfected cells; host or cells: Ba/F3 cells, retroviral pBabe-Puro vector
Protocol: as §1, §2, §3

EGFR A763insFQEA = target: T7, EGFR A763insFQEA (Homo sapiens, UniProt P00533, INS763FQEA); conditions: Classical-Like, 72 hours
T7 construct: expressed in transfected cells; host or cells: Ba/F3 cells, retroviral pBabe-Puro vector

EGFR A763insLQEA = target: T8, EGFR A763insLQEA (Homo sapiens, UniProt P00533, INS763LQEA); conditions: Classical-Like, 72 hours
T8 construct: expressed in transfected cells; host or cells: Ba/F3 cells, retroviral pBabe-Puro vector

EGFR S768dupSVD = target: T9, EGFR S768dupSVD (Homo sapiens, UniProt P00533, DUP768-770); conditions: Ex20, 72 hours
T9 construct: expressed in transfected cells; host or cells: Ba/F3 cells, retroviral pBabe-Puro vector

EGFR H773insNPH = target: T10, EGFR H773insNPH (Homo sapiens, UniProt P00533, INS773NPH); conditions: Ex20, 72 hours
T10 construct: expressed in transfected cells; host or cells: Ba/F3 cells, retroviral pBabe-Puro vector

EGFR N771dupN G724S = target: T11, EGFR N771dupN G724S (Homo sapiens, UniProt P00533, DUP771-771/G724S); conditions: Ex20, 72 hours
T11 construct: expressed in transfected cells; host or cells: Ba/F3 cells, retroviral pBabe-Puro vector (vector made by GeneScript from EGFR G724S, c.2313_2314insAAC)

EGFR T790M = target: T12, EGFR T790M (Homo sapiens, UniProt P00533, T790M); conditions: T790M-like-3S, 72 hours
T12 construct: expressed in transfected cells; host or cells: Ba/F3

EGFR Ex19del T790M = target: T13, EGFR Ex19del T790M (Homo sapiens, UniProt P00533, DEL746-750/T790M); conditions: T790M-like-3S, 72 hours
T13 construct: expressed in transfected cells; host or cells: Ba/F3
Protocol: Data represent the ratio of the IC50 value for a given TKI for cells with a T790M-like-3S EGFR mutation to the IC50 value for cells with wildtype EGFR.
as §2
After 48-72 hours of transduction, 2 μg/ml puromycin (Invitrogen) was added to Ba/F3 cell lines in complete RPMI. To select for EGFR positive cell lines, cells were stained with PE-EGFR (Biolegend) and sorted by FACS. After sorting, EGFR positive cells were maintained in RPMI containing 10% FBS, 1% penicillin/streptomycin, and 1 ng/ml EGF to support cell viability. Drug screening was performed as previously described^41,42. Shortly, cells were plated in 384-well plates (Greiner Bio-One) at 2000-3000 cells per well in technical triplicate. Seven different concentrations of TKIs or DMSO vehicle were added to reach a final volume of 40 μL per well. After 72 hours, 11 μL of Cell Titer Glo (Promega) was added to each well. Plates were incubated for a minimum of 10 minutes, and bioluminescence was determined using a FLUOstar OPTIMA plate reader (BMG LABTECH). Raw bioluminescence values were normalized to DMSO control treated cells, and values were plotted in GraphPad Prism. […] Drug screens were performed in technical triplicate on each plate and either duplicate or triplicate biological replicates.

EGFR G719S T790M = target: T14, EGFR G719S T790M (Homo sapiens, UniProt P00533, G719S/T790M); conditions: T790M-like-3S, 72 hours
T14 construct: expressed in transfected cells; host or cells: Ba/F3

EGFR L718Q T790M = target: T15, EGFR L718Q T790M (Homo sapiens, UniProt P00533, L718Q/T790M); conditions: T790M-like-3R, 72 hours
T15 construct: expressed in transfected cells; host or cells: Ba/F3
Protocol: (§4) Data represent the ratio of the IC50 value for a given TKI for cells with a T790M-like-3R EGFR mutation to the IC50 value for cells with wildtype EGFR.
as §2
(§5) After 48-72 hours of transduction, 2 μg/ml puromycin (Invitrogen) was added to Ba/F3 cell lines in complete RPMI. To select for EGFR positive cell lines, cells were stained with PE-EGFR (Biolegend) and sorted by FACS. After sorting, EGFR positive cells were maintained in RPMI containing 10% FBS, 1% penicillin/streptomycin, and 1 ng/ml EGF to support cell viability. […] Shortly, cells were plated in 384-well plates (Greiner Bio-One) at 2000-3000 cells per well in technical triplicate. Seven different concentrations of TKIs or DMSO vehicle were added to reach a final volume of 40 μL per well. After 72 hours, 11 μL of Cell Titer Glo (Promega) was added to each well. Plates were incubated for a minimum of 10 minutes, and bioluminescence was determined using a FLUOstar OPTIMA plate reader (BMG LABTECH). Raw bioluminescence values were normalized to DMSO control treated cells, and values were plotted in GraphPad Prism. […] Drug screens were performed in technical triplicate on each plate and either duplicate or triplicate biological replicates. […] Statistical differences between groups were determined by ANOVA as described in the figure legends.

EGFR L858R T790M L718V = target: T16, EGFR L858R T790M L718V (Homo sapiens, UniProt P00533, L718V/L858R/T790M); conditions: T790M-like-3R, 72 hours
T16 construct: expressed in transfected cells; host or cells: Ba/F3

EGFR Ex19del T790M C797S = target: T17, EGFR Ex19del T790M C797S (Homo sapiens, UniProt P00533, C797S/DEL746-750/T790M); conditions: T790M-like-3R, 72 hours
T17 construct: expressed in transfected cells; host or cells: Ba/F3
Protocol: as §4, §2, §5

EGFR E709_T710del insD = target: T18, EGFR E709_T710del insD (Homo sapiens, UniProt P00533, DEL709-709/T710D)
T18 construct: expressed in transfected cells; host or cells: Ba/F3

EGFR E709A G719S = target: T19, EGFR E709A G719S (Homo sapiens, UniProt P00533, E709A/G719S)
T19 construct: expressed in transfected cells; host or cells: Ba/F3

EGFR G719S = target: T20, EGFR G719S (Homo sapiens, UniProt P00533, G719S)
T20 construct: expressed in transfected cells; host or cells: Ba/F3

EGFR G719A = target: T21, EGFR G719A (Homo sapiens, UniProt P00533, G719A)
T21 construct: expressed in transfected cells; host or cells: Ba/F3

EGFR G719A L861Q = target: T22, EGFR G719A L861Q (Homo sapiens, UniProt P00533, G719A/L861Q)
T22 construct: expressed in transfected cells; host or cells: Ba/F3

EGFR I740dupIPVAK = test system: EGFR I740dupIPVAK
EGFR L747P = target: T23, EGFR L747P (Homo sapiens, UniProt P00533, L747P)
T23 construct: expressed in transfected cells; host or cells: Ba/F3
Protocol: Data represent the ratio of the IC50 value for a given TKI for cells with a PACC EGFR mutation to the IC50 value for cells with wildtype EGFR.
as §2
After 48-72 hours of transduction, 2 μg/ml puromycin (Invitrogen) was added to Ba/F3 cell lines in complete RPMI. To select for EGFR positive cell lines, cells were stained with PE-EGFR (Biolegend) and sorted by FACS. After sorting, EGFR positive cells were maintained in RPMI containing 10% FBS, 1% penicillin/streptomycin, and 1 ng/ml EGF to support cell viability. Drug screening was performed as previously described^41,42. Shortly, cells were plated in 384-well plates (Greiner Bio-One) at 2000-3000 cells per well in technical triplicate. Seven different concentrations of TKIs or DMSO vehicle were added to reach a final volume of 40 μL per well. After 72 hours, 11 μL of Cell Titer Glo (Promega) was added to each well. Plates were incubated for a minimum of 10 minutes, and bioluminescence was determined using a FLUOstar OPTIMA plate reader (BMG LABTECH). Raw bioluminescence values were normalized to DMSO control treated cells, and values were plotted in GraphPad Prism. […] Drug screens were performed in technical triplicate on each plate and either duplicate or triplicate biological replicates. […] Statistical differences between groups were determined by ANOVA as described in the figure legends.

EGFR V774M = target: T24, EGFR V774M (Homo sapiens, UniProt P00533, V774M)
T24 construct: host or cells: Ba/F3

EGFR R776C = target: T25, EGFR R776C (Homo sapiens, UniProt P00533, R776C)
T25 construct: host or cells: Ba/F3

EGFR L858R/L792H = target: T26, EGFR L858R/L792H (Homo sapiens, UniProt P00533, L792H/L858R)
T26 construct: expressed in transfected cells; host or cells: Ba/F3

SMILES | ratio of IC50 for cells with mutant EGFR to IC50 for cells with wildtype EGFR (Mut/WT) (EGFR E709K L858R) | ratio of IC50 for cells with mutant EGFR to IC50 for cells with wildtype EGFR (Mut/WT) (EGFR L833F) | ratio of IC50 for cells with mutant EGFR to IC50 for cells with wildtype EGFR (Mut/WT) (EGFR Ex19del) | ratio of IC50 for cells with mutant EGFR to IC50 for cells with wildtype EGFR (Mut/WT) (EGFR L858R S784F) | ratio of IC50 for cells with mutant EGFR to IC50 for cells with wildtype EGFR (Mut/WT) (EGFR S720P) | ratio of IC50 for cells with mutant EGFR to IC50 for cells with wildtype EGFR (Mut/WT) (EGFR L861Q) | ratio of IC50 for cells with mutant EGFR to IC50 for cells with wildtype EGFR (Mut/WT) (EGFR A763insFQEA) | ratio of IC50 for cells with mutant EGFR to IC50 for cells with wildtype EGFR (Mut/WT) (EGFR A763insLQEA) | ratio of IC50 for cells with mutant EGFR to IC50 for cells with wildtype EGFR (Mut/WT) (EGFR S768dupSVD) | ratio of IC50 for cells with mutant EGFR to IC50 for cells with wildtype EGFR (Mut/WT) (EGFR H773insNPH) | ratio of IC50 for cells with mutant EGFR to IC50 for cells with wildtype EGFR (Mut/WT) (EGFR N771dupN G724S) | ratio of IC50 for cells with mutant EGFR to IC50 for cells with wildtype EGFR (Mut/WT) (EGFR T790M) | ratio of IC50 for cells with mutant EGFR to IC50 for cells with wildtype EGFR (Mut/WT) (EGFR Ex19del T790M) | ratio of IC50 for cells with mutant EGFR to IC50 for cells with wildtype EGFR (Mut/WT) (EGFR G719S T790M) | ratio of IC50 for cells with mutant EGFR to IC50 for cells with wildtype EGFR (Mut/WT) (EGFR L718Q T790M) | ratio of IC50 for cells with mutant EGFR to IC50 for cells with wildtype EGFR (Mut/WT) (EGFR L858R T790M L718V) | ratio of IC50 for cells with mutant EGFR to IC50 for cells with wildtype EGFR (Mut/WT) (EGFR Ex19del T790M C797S) | further results
C=CC(=O)Nc1cccc(Oc2nc(Nc3ccc(N4CCN(C)CC4)cc3)nc3ccsc23)c1 [Olmutinib] | 0.01609 | 0.1289 | 0.0008432 | 0.04569 | 0.003331 | 0.05048 | 0.02753 | 0.07483 | 0.5533 | 0.4274 | 0.4165 | 0.04611 | 0.0004059 | 0.02453 | 0.3579 | 0.8754 | 1.926 | ratio of the IC50 value for cells with a PACC EGFR mutation to the IC50 value for cells with wildtype EGFR (EGFR E709_T710del insD; Ba/F3 cells, EGFR E709_T710del insD (PACC), Mut/WT): 0.2299; ratio of the IC50 value for cells with a PACC EGFR mutation to the IC50 value for cells with wildtype EGFR (EGFR E709A G719S; Ba/F3 cells, EGFR E709A G719S (PACC), Mut/WT): 0.1443; ratio of the IC50 value for cells with a PACC EGFR mutation to the IC50 value for cells with wildtype EGFR (EGFR G719S; Ba/F3 cells, EGFR G719S (PACC), Mut/WT): 0.214; ratio of the IC50 value for cells with a PACC EGFR mutation to the IC50 value for cells with wildtype EGFR (EGFR G719A; Ba/F3 cells, EGFR G719A (PACC), Mut/WT): 0.141; ratio of the IC50 value for cells with a PACC EGFR mutation to the IC50 value for cells with wildtype EGFR (EGFR G719A L861Q; Ba/F3 cells, EGFR G719A L861Q (PACC), Mut/WT): 0.07388; ratio of the IC50 value for cells with a PACC EGFR mutation to the IC50 value for cells with wildtype EGFR (EGFR I740dupIPVAK; Ba/F3 cells, EGFR I740dupIPVAK (PACC), Mut/WT): 0.1715; ratio of the IC50 value for cells with a PACC EGFR mutation to the IC50 value for cells with wildtype EGFR (EGFR L747P; Ba/F3 cells, EGFR L747P (PACC), Mut/WT): 0.3924; ratio of the IC50 value for cells with a PACC EGFR mutation to the IC50 value for cells with wildtype EGFR (EGFR V774M; Ba/F3 cells, EGFR V774M (PACC), Mut/WT): 0.06988; ratio of the IC50 value for cells with a PACC EGFR mutation to the IC50 value for cells with wildtype EGFR (EGFR R776C; Ba/F3 cells, EGFR R776C (PACC), Mut/WT): 0.5131; ratio of the IC50 value for cells with a PACC EGFR mutation to the IC50 value for cells with wildtype EGFR (EGFR L858R/L792H; Ba/F3 cells, EGFR L858R/L792H (PACC), Mut/WT): 0.1405
CNC(=O)CN1CCC(Oc2cc3c(Nc4cccc(Cl)c4F)ncnc3cc2OC)CC1 [Sapatinib] | 0.02084 | 0.006619 | 0.0005535 | 0.06664 | 0.004664 | 0.01265 | 0.3137 | 0.004226 | 2.666 | 1.265 | 1.103 | 70.5 | 10.73 | 54.78 | 54.78 | 41.48 | 17.13 | ratio of IC50 for cells with mutant EGFR to IC50 for cells with wildtype EGFR (Mut/WT) (EGFR E709_T710del insD; PACC, E709_T710del insD, Ba/F3, 72 hours): 1.754; ratio of IC50 for cells with mutant EGFR to IC50 for cells with wildtype EGFR (Mut/WT) (EGFR E709A G719S; PACC, E709A G719S, Ba/F3, 72 hours): 0.02227; ratio of IC50 for cells with mutant EGFR to IC50 for cells with wildtype EGFR (Mut/WT) (EGFR G719S; PACC, G719S, Ba/F3, 72 hours): 0.1998; ratio of IC50 for cells with mutant EGFR to IC50 for cells with wildtype EGFR (Mut/WT) (EGFR G719A; PACC, G719A, Ba/F3, 72 hours): 0.01264; ratio of IC50 for cells with mutant EGFR to IC50 for cells with wildtype EGFR (Mut/WT) (EGFR G719A L861Q; PACC, G719A L861Q, Ba/F3, 72 hours): 0.04615; ratio of IC50 for cells with mutant EGFR to IC50 for cells with wildtype EGFR (Mut/WT) (EGFR I740dupIPVAK; PACC, I740dupIPVAK, Ba/F3, 72 hours): 0.008351; ratio of IC50 for cells with mutant EGFR to IC50 for cells with wildtype EGFR (Mut/WT) (EGFR L747P; PACC, L747P, Ba/F3, 72 hours): 0.03076; ratio of IC50 for cells with mutant EGFR to IC50 for cells with wildtype EGFR (Mut/WT) (EGFR V774M; PACC, V774M, Ba/F3, 72 hours): 0.05575; ratio of IC50 for cells with mutant EGFR to IC50 for cells with wildtype EGFR (Mut/WT) (EGFR R776C; PACC, R776C, Ba/F3, 72 hours): 0.02012; ratio of IC50 for cells with mutant EGFR to IC50 for cells with wildtype EGFR (Mut/WT) (EGFR L858R/L792H; PACC, L858R/L792H, Ba/F3, 72 hours): 0.01237
